In patent US20250092065A1, “2-(INDAZOL-5-YL)-6-(PIPERIDIN-4-YL)-1,7-NAPHTHYRIDINE DERIVATIVES AND RELATED COMPOUNDS AS MODULATORS FOR SPLICING NUCLEIC ACIDS AND FOR THE TREATMENT OF PROLIFERATIVE DISEASES” (REMIX THERAPEUTICS INC., priority 2022, published 2025):
Counter-ions that a name gives are not always drawn.

Key:
HTT = assay: HiBiT protein abundance assay, HTT (K562 HiBiT knock-in); type: cell-based, human; settings: HiBiT knock-in K562 cells, 24 hours, top dose 10 μM
In short: (§1)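 Endogenously HiBiT-tagged K562 lines were treated for 24 h at 37 °C with 10-point 3-fold dilutions (top 10 μM final, DMSO ≤0.25%). Lytic LgBiT complementation luminescence was normalized between unmodified K562 (PC) and DMSO-treated tagged cells (NC); IC50 was interpolated at 50% from a four-parameter logistic fit.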

K562 cells = assay: Cell Titer Glo 2.0 cell viability (toxicity) assay, K562; settings: 500 cells/well, 72 hours
Target C [1] = assay: RT-qPCR canonical junction panel assay, Target C mRNA; type: cell-based; settings: Table 4, read-out: Target C IC50 (decrease in CJ mRNA levels)
In short: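 A673 or K562 cells treated with compound; CJ mRNA quantified by junction-spanning RT-qPCR probe after cDNA synthesis, normalised to GAPDH, GUSB or PPIA and DMSO (2^−ΔΔCt), scaled to set ΔCt assay window; IC50 from 4-parameter fit of CJ decrease.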

MYB = assay: HiBiT protein abundance assay, MYB (K562 HiBiT knock-in); type: cell-based, human; settings: HiBiT knock-in K562 cells, 24 hours, top dose 10 μM
In short: as §1

Target C [2] = assay: HiBiT protein abundance assay, Target C (K562 HiBiT knock-in); type: cell-based, human; settings: HiBiT knock-in K562 cells, 24 hours, top dose 10 μM
In short: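 K562 HiBiT knock-in cells (10000/well) were treated 24 h at 37° C with a 10-point 3-fold dilution series (top 10 μM final, ≤0.25% DMSO). HiBiT luminescence was read after lytic LgBiT detection. Percent response used unmodified K562 and DMSO-treated knock-in controls, and IC50 came from a four-parameter fit at 50% of untreated.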

Compound | IC50 (HTT) [µM] | Effect of Exemplary Compounds on Cell Viability, K562 (K562 cells) | IC50 (Target C [1]) [µM] | IC50 (MYB) [µM] | IC50 (Target C [2]) [µM]
C[C@H]1CN(c2cc(F)c3nc(-c4cc(F)c5nn(C)cc5c4)ccc3c2)C[C@H](C)N1 (single isomer, unassigned) [Compound 760] | 0.1 to 1 | B (B represents 100-1000 nM) | 0.1 to 1 | < 0.1 | 0.1 to 1
C[C@H]1CN(c2cc(F)c3nc(-c4cc5cn(C)nc5cc4O)ccc3c2)C[C@H](C)N1 (single isomer, unassigned) [Compound 770] | < 0.1 | B (B represents 100-1000 nM) | 0.1 to 1 | < 0.1 | 0.1 to 1
Cc1cn2nc(-c3ccc4cc(N5C[C@H](C)N[C@@H](C)C5)cc(F)c4n3)cc(C)c2n1 (single isomer, unassigned) [Compound 799] | 0.1 to 1 | B (B represents 100-1000 nM) | 1 to 10 | 0.1 to 1 | 0.1 to 1
Cc1c(O)c(-c2ccc3cc(N4C[C@H](C)N[C@@H](C)C4)cc(F)c3n2)cc2cn(C)nc12 (single isomer, unassigned) [Compound 800, 2,2,2-trifluoroacetate] | < 0.1 | A (A represents <100 nM) | 0.1 to 1 | < 0.1 | < 0.1
Cc1nc(-c2cc3cn(C)nc3cc2O)nc2ccc(N3C[C@H](C)N[C@@H](C)C3)cc12 (single isomer, unassigned) [Compound 806] | 0.1 to 1 | B (B represents 100-1000 nM) | > 10 | < 0.1 | 1 to 10
Cc1nc(-c2cc3cn(C)nc3c(C)c2O)nc2ccc(N3C[C@H](C)N[C@@H](C)C3)cc12 (single isomer, unassigned) [Compound 807] | 0.1 to 1 | B (B represents 100-1000 nM) | > 10 | < 0.1 | > 10
Cn1cc2cc(-c3cc4ccc(C5CCNCC5)nc4cn3)c(O)cc2n1 [Compound 104] | 1 to 10 | C (C represents 1000-9999 nM) | 1 to 10 | 1 to 10 | 1 to 10
Cn1cc2cc(-c3ccc4nc(N5CC[C@H](NC6CCC6)C5)ccc4n3)c(O)cc2n1 [Compound 156] | < 0.1 | B (B represents 100-1000 nM) | 0.1 to 1 | < 0.1 | < 0.1
CC(C)N[C@H]1CCN(c2ccc3nc(-c4cc5cn(C)nc5cc4O)ccc3n2)C1 [Compound 171] | < 0.1 | B (B represents 100-1000 nM) | 0.1 to 1 | < 0.1 | < 0.1
Cc1cn2nc(-c3ccc4nc(N5CCC(NC(C)(C)C)C5)ccc4n3)cc(C)c2n1 (stereo not drawn) [Compound 186] | < 0.1 | B (B represents 100-1000 nM) | < 0.1 | 0.1 to 1 | < 0.1
Cn1cc2cc(-c3ccc4nc(N5CC[C@H](NCC6CC6)C5)ccc4n3)c(O)cc2n1 [Compound 194] | < 0.1 | B (B represents 100-1000 nM) | 0.1 to 1 | < 0.1 | < 0.1
CN(C)C1CCN(c2ccc3nc(-c4cc5cn(C)nc5c(F)c4O)ncc3c2)CC1 [Compound 757, 5-{6-[4-(dimethylamino)piperidin-1-yl]quinazolin-2-yl}-7-fluoro-2-methylindazol-6-ol] | 1 to 10 | A (A represents <100 nM) | 1 to 10 | < 0.1 | 1 to 10
C[C@@H]1CN(c2cc(F)c3nc(-c4cc(F)c5nn(C)cc5c4)ccc3c2)C[C@H](C)N1 [Compound 758, 6-[(3R,5S)-3,5-dimethylpiperazin-1-yl]-8-fluoro-2-(7-fluoro-2-methylindazol-5-yl)quinoline] | 0.1 to 1 | B (B represents 100-1000 nM) | 1 to 10 | 0.1 to 1 | 0.1 to 1
C[C@@H]1CN(c2cc(F)c3nc(-c4cc5cn(C)nc5c(F)c4O)ccc3c2)C[C@H](C)N1 [Compound 763, 5-{6-[(3R,5S)-3,5-dimethylpiperazin-1-yl]-8-fluoroquinolin-2-yl}-7-fluoro-2-methylindazol-6-ol hydrochloride] | < 0.1 | A (A represents <100 nM) | 1 to 10 | < 0.1 | < 0.1
C[C@@H]1CN(c2cc(F)c3nc(-c4cc5cn(C)nc5cc4O)ccc3c2)C[C@H](C)N1 [Compound 768, 5-{6-[(3R,5S)-3,5-dimethylpiperazin-1-yl]-8-fluoroquinolin-2-yl}-2-methylindazol-6-ol hydrochloride] | 1 to 10 | C (C represents 1000-9999 nM) | 1 to 10 | < 0.1 | 1 to 10
Cc1cn2cc(-c3ncc4cc(N5C[C@@H](C)N[C@@H](C)C5)ccc4n3)cc(F)c2n1 [Compound 773, 6-[(3R,5S)-3,5-dimethylpiperazin-1-yl]-2-{8-fluoro-2-methylimidazo[1,2-a]pyridin-6-yl}quinazoline] | 0.1 to 1 | B (B represents 100-1000 nM) | 1 to 10 | < 0.1 | 0.1 to 1
Cc1cn2cc(-c3nc(C(=O)NC4CCC4)c4cc(N5C[C@@H](C)N[C@@H](C)C5)ccc4n3)cc(F)c2n1 [Compound 779, N-cyclobutyl-6-[(3R,5S)-3,5-dimethylpiperazin-1-yl]-2-{8-fluoro-2-methylimidazo[1,2-a]pyridin-6-yl}quinazoline-4-carboxamide] | 0.1 to 1 | A (A represents <100 nM) | 1 to 10 | < 0.1 | 0.1 to 1
Cc1c(O)c(-c2nc(C(N)=O)c3cc(N4C[C@H](C)N[C@@H](C)C4)ccc3n2)cc2cn(C)nc12 [Compound 796] | 0.1 to 1 | A (A represents <100 nM) | > 10 | < 0.1 | 0.1 to 1
C[C@H]1CN(c2ccc3nc(-c4cc5cn(C)nc5cc4O)nc(C(N)=O)c3c2)C[C@H](C)N1 [Compound 797] | 0.1 to 1 | A (A represents <100 nM) | > 10 | < 0.1 | 1 to 10
Cc1cn2cc(-c3ncc4cc(N5C[C@H](C)N[C@@H](C)C5)ccc4n3)cc(F)c2n1 [Compound 803, 6-[(3S,5S)-3,5-dimethylpiperazin-1-yl]-2-{8-fluoro-2-methylimidazo[1,2-a]pyridin-6-yl}quinazoline] | 0.1 to 1 | A (A represents <100 nM) | 0.1 to 1 | < 0.1 | 0.1 to 1
Cc1c(O)c(-c2ccc3cc(N4CCNC5(CC5)C4)cc(F)c3n2)cc2cn(C)nc12 [Compound 805, 5-(6-{4,7-diazaspiro[2.5]octan-7-yl}-8-fluoroquinolin-2-yl)-2,7-dimethylindazol-6-ol] | < 0.1 | B (B represents 100-1000 nM) | 0.1 to 1 | < 0.1 | 0.1 to 1
